The source of these data is PubChem BioAssay AID220 (DTP/NCI, 2004).

The test system of the assay is CD8F1 mice, subcutaneous mammary adenocarcinoma, T/C%. Description: NCI In Vivo Anticancer Drug Screen. Data for tumor model Mammary Adenocarcinoma CD8F1 (subcutaneous) in CD8F1. The following applies: higher = larger tumour. The essentials: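 Compound-treated versus vehicle-treated mice with transplantable tumors; survival or tumor size compared as T/C.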
Setting [1] is: endpoint: median tumor weight (est.), dose: 25.0 mg/kg/injection, schedule: Q07DX005 (ip), vehicle: saline.
The mark [2] stands for this setting: endpoint: median tumor weight (est.), dose: 50.0 mg/kg/injection, schedule: Q07DX005 (ip), vehicle: saline.
Where [3] appears, read: endpoint: median tumor weight (est.), dose: 100.0 mg/kg/injection, schedule: Q07DX005 (ip), vehicle: saline.
The mark [4] stands for this setting: endpoint: median tumor weight (est.), dose: 200.0 mg/kg/injection, schedule: Q07DX005 (ip), vehicle: saline.
The mark [5] stands for this setting: endpoint: median tumor weight (est.), dose: 400.0 mg/kg/injection, schedule: Q07DX005 (ip), vehicle: saline.
Where [6] appears, read: endpoint: median tumor weight change, dose: 125.0 mg/kg/injection, schedule: Q01DX001 (ip), vehicle: saline with Tween-80.

Each structure is given as a SMILES string. Several values for one entry are separate records, joined by “and”; a condition that tells them apart may be missing. Identical values can stand only once. Results filed as inconclusive are left out.

Regarding `c1ccc2c(NCCCCCCCCNc3c4ccccc4nc4ccccc34)c3ccccc3nc2c1`, the T/C runs as follows: (endpoint: median tumor weight (est.), dose: 5.0 mg/kg/injection, schedule: Q07DX005 (ip), vehicle: Klucel (hydroxypropylcellulose) (HPC)) 72 % of control; (endpoint: median tumor weight (est.), dose: 10.0 mg/kg/injection, schedule: Q07DX005 (ip), vehicle: Klucel (hydroxypropylcellulose) (HPC)) 56 % of control; (endpoint: median tumor weight (est.), dose: 20.0 mg/kg/injection, schedule: Q07DX005 (ip), vehicle: Klucel (hydroxypropylcellulose) (HPC)) 57 % of control; (endpoint: median tumor weight (est.), dose: 40.0 mg/kg/injection, schedule: Q07DX005 (ip), vehicle: Klucel (hydroxypropylcellulose) (HPC)) 46 % of control.

For `C(CSC1=NCCN1)CSC1=NCCN1`, the T/C runs as follows: (endpoint: median tumor weight (est.), dose: 12.5 mg/kg/injection, schedule: Q07DX005 (ip), vehicle: saline) 98 % of control; under setting [1], 103 % of control; under setting [2], 76 % of control; under setting [3], 102 % of control; under setting [4], 69 % of control.

For the molecule `ClCC[N+]12CC[N+](CCCl)(CC1)C2`, the T/C was 16 % of control (endpoint: mean tumor weight, dose: 12.5 mg/kg/injection, schedule: Q07DX006 (ip), vehicle: water); 85 % of control (endpoint: mean tumor weight, dose: 25.0 mg/kg/injection, schedule: Q07DX006 (ip), vehicle: water); 72 % of control (endpoint: mean tumor weight, dose: 50.0 mg/kg/injection, schedule: Q07DX006 (ip), vehicle: water); 18 % of control (endpoint: mean tumor weight, dose: 100.0 mg/kg/injection, schedule: Q07DX006 (ip), vehicle: water); 3 % of control (endpoint: mean tumor weight, dose: 200.0 mg/kg/injection, schedule: Q07DX006 (ip), vehicle: water); 70 % of control (endpoint: median tumor weight (est.), dose: 12.5 mg/kg/injection, schedule: Q07DX005 (ip), vehicle: water). Besides, the T/C runs as follows: (endpoint: median tumor weight (est.), dose: 25.0 mg/kg/injection, schedule: Q07DX005 (ip), vehicle: water) 54 % of control; under setting [2], 68 % of control and 50 % of control; (endpoint: median tumor weight (est.), dose: 50.0 mg/kg/injection, schedule: Q07DX005 (ip), vehicle: water) 49 % of control; (endpoint: median tumor weight (est.), dose: 100.0 mg/kg/injection, schedule: Q07DX005 (ip), vehicle: water) 32 % of control; under setting [4], 20 % of control; under setting [5], 6 % of control.

In the case of `O=[N+]([O-])c1ccc(N2CCOCC2)c2c1no[n+]2[O-]`, the T/C by setting is: (endpoint: median tumor weight change, dose: 62.5 mg/kg/injection, schedule: Q01DX001 (ip), vehicle: saline with Tween-80) 100 % of control; under setting [6], 114 % of control; (endpoint: median tumor weight change, dose: 250.0 mg/kg/injection, schedule: Q01DX001 (ip), vehicle: saline with Tween-80) 43 % of control; (endpoint: median tumor weight change, dose: 500.0 mg/kg/injection, schedule: Q01DX001 (ip), vehicle: saline with Tween-80) 56 % of control.

As to `Cc1ccc2c(c1)C(=O)N(CC[P+](c1ccccc1)(c1ccccc1)c1ccccc1)C2=O`, the T/C (endpoint: mean tumor weight, dose: 1.56 mg/kg/injection, schedule: Q07DX006 (ip), vehicle: water) was 90 % of control; the T/C (endpoint: mean tumor weight, dose: 6.25 mg/kg/injection, schedule: Q07DX006 (ip), vehicle: water) was 96 % of control; the T/C (endpoint: median tumor weight (est.), dose: 3.12 mg/kg/injection, schedule: Q07DX005 (ip), vehicle: water) is 56 % of control; the T/C (endpoint: median tumor weight (est.), dose: 6.25 mg/kg/injection, schedule: Q07DX005 (ip), vehicle: water) is 111 % of control.

Take `NC(C/[N+]([O-])=N/O)C(=O)O` (centres undefined): the T/C is, setting by setting: (endpoint: mean tumor weight, dose: 32.0 mg/kg/injection, schedule: Q07DX006 (ip), vehicle: saline) 47 % of control; (endpoint: mean tumor weight, dose: 64.0 mg/kg/injection, schedule: Q07DX006 (ip), vehicle: saline) 4 % of control; (endpoint: mean tumor weight, dose: 128.0 mg/kg/injection, schedule: Q07DX006 (ip), vehicle: saline) 32 % of control; (endpoint: mean tumor weight, dose: 256.0 mg/kg/injection, schedule: Q07DX006 (ip), vehicle: saline) 117 % of control; (endpoint: mean tumor weight, dose: 512.0 mg/kg/injection, schedule: Q07DX006 (ip), vehicle: saline) 7 % of control; (endpoint: mean tumor weight, dose: 1024.0 mg/kg/injection, schedule: Q07DX006 (ip), vehicle: saline) 8 % of control. Moreover, the T/C was 63 % of control under setting [1]; 68 % of control under setting [2]; 85 % of control (endpoint: median tumor weight (est.), dose: 64.0 mg/kg/injection, schedule: Q01DX005 (ip), vehicle: saline); 57 % of control under setting [3]; 92 % of control (endpoint: median tumor weight (est.), dose: 128.0 mg/kg/injection, schedule: Q01DX005 (ip), vehicle: saline); 56 % of control under setting [4]. Also, the T/C is, setting by setting: (endpoint: median tumor weight (est.), dose: 256.0 mg/kg/injection, schedule: Q01DX005 (ip), vehicle: saline) 51 % of control; under setting [5], 49 % of control; (endpoint: median tumor weight (est.), dose: 512.0 mg/kg/injection, schedule: Q01DX005 (ip), vehicle: saline) 31 % of control; (endpoint: median tumor weight (est.), dose: 1024.0 mg/kg/injection, schedule: Q01DX005 (ip), vehicle: saline) 63 % of control.

Take `O=C(NO)c1cc(O)c(O)c(O)c1`: the T/C reads like this: (endpoint: median tumor weight change, dose: 300.0 mg/kg/injection, schedule: Q01DX001 (ip), vehicle: water) 124 % of control; (endpoint: median tumor weight change, dose: 600.0 mg/kg/injection, schedule: Q01DX001 (ip), vehicle: water) 78 % of control.

For the molecule `CCc1ccc(C2=C(O)C(=O)C(c3ccc(CC)cc3)=C(O)C2=O)cc1`, the T/C is, setting by setting: (endpoint: median tumor weight change, dose: 16.0 mg/kg/injection, schedule: Q01DX001 (ip), vehicle: saline with Tween-80) 88 % of control; (endpoint: median tumor weight change, dose: 31.0 mg/kg/injection, schedule: Q01DX001 (ip), vehicle: saline with Tween-80) 107 % of control; (endpoint: median tumor weight change, dose: 62.0 mg/kg/injection, schedule: Q01DX001 (ip), vehicle: saline with Tween-80) 92 % of control; under setting [6], 61 % of control.

Regarding `O=C(C1CO1)C(Cl)(Cl)Cl` (centres undefined), the T/C reads like this: (endpoint: median tumor weight change, dose: 4.0 mg/kg/injection, schedule: Q01DX001 (ip), vehicle: saline) 81 % of control; (endpoint: median tumor weight change, dose: 8.0 mg/kg/injection, schedule: Q01DX001 (ip), vehicle: saline) 72 % of control; (endpoint: median tumor weight change, dose: 16.0 mg/kg/injection, schedule: Q01DX001 (ip), vehicle: saline) 68 % of control; (endpoint: median tumor weight change, dose: 125.0 mg/kg/injection, schedule: Q01DX001 (ip), vehicle: saline) 34 % of control.

As for `O=C[C@@H](CO)O[C@H](C=O)n1cnc2c(=O)[nH]cnc21`, the T/C was 119 % of control (endpoint: mean tumor weight, dose: 12.5 mg/kg/injection, schedule: Q07DX004 (ip), vehicle: saline with Tween-80); 98 % of control (endpoint: mean tumor weight, dose: 25.0 mg/kg/injection, schedule: Q07DX004 (ip), vehicle: saline with Tween-80); 76 % of control (endpoint: mean tumor weight, dose: 50.0 mg/kg/injection, schedule: Q07DX004 (ip), vehicle: saline with Tween-80); 78 % of control (endpoint: mean tumor weight, dose: 100.0 mg/kg/injection, schedule: Q07DX004 (ip), vehicle: saline with Tween-80); 100 % of control (endpoint: mean tumor weight, dose: 200.0 mg/kg/injection, schedule: Q07DX004 (ip), vehicle: saline with Tween-80); 67 % of control (endpoint: mean tumor weight, dose: 400.0 mg/kg/injection, schedule: Q07DX004 (ip), vehicle: saline with Tween-80). Besides, the T/C was 95 % of control (endpoint: median tumor weight (est.), dose: 12.5 mg/kg/injection, schedule: Q07DX005 (ip), vehicle: saline with Tween-80); 116 % of control (endpoint: median tumor weight (est.), dose: 25.0 mg/kg/injection, schedule: Q07DX005 (ip), vehicle: saline with Tween-80); 118 % of control (endpoint: median tumor weight (est.), dose: 50.0 mg/kg/injection, schedule: Q07DX005 (ip), vehicle: saline with Tween-80); 113 % of control (endpoint: median tumor weight (est.), dose: 100.0 mg/kg/injection, schedule: Q07DX005 (ip), vehicle: saline with Tween-80); 84 % of control (endpoint: median tumor weight (est.), dose: 200.0 mg/kg/injection, schedule: Q07DX005 (ip), vehicle: saline with Tween-80); 82 % of control (endpoint: median tumor weight (est.), dose: 400.0 mg/kg/injection, schedule: Q07DX005 (ip), vehicle: saline with Tween-80).

Take `N#Cc1cn(C2OC(CO)C(O)C2O)c2ncnc(N)c12` (centres undefined): the T/C by setting is: (endpoint: median tumor weight (est.), dose: 0.12 mg/kg/injection, schedule: Q07DX005 (ip), vehicle: saline) 86 % of control; (endpoint: median tumor weight (est.), dose: 0.25 mg/kg/injection, schedule: Q07DX005 (ip), vehicle: saline) 53 % of control; (endpoint: median tumor weight (est.), dose: 0.5 mg/kg/injection, schedule: Q07DX005 (ip), vehicle: saline) 55 % of control; (endpoint: median tumor weight (est.), dose: 1.0 mg/kg/injection, schedule: Q07DX005 (ip), vehicle: saline) 63 % of control.

On to `COC(=O)[C@@H]1c2cc3c(c(O)c2[C@@H](OC)C[C@@]1(C)O)C(=O)c1c(O)cc2c(c1C3=O)OC1O[C@@]2(C)[C@H](O)[C@@H](N(C)C)[C@@H]1O`, for which the T/C by setting is: (endpoint: median tumor weight (est.), dose: 12.5 mg/kg/injection, schedule: Q07DX005 (ip), vehicle: suspension in saline) 73 % of control; (endpoint: median tumor weight (est.), dose: 50.0 mg/kg/injection, schedule: Q07DX005 (ip), vehicle: suspension in saline) 61 % of control and 66 % of control; (endpoint: median tumor weight (est.), dose: 100.0 mg/kg/injection, schedule: Q07DX005 (ip), vehicle: suspension in saline) 151 % of control.
